Results reported in US4657891A, “Diuretic peptide, and production and use thereof” (Suntory Limited, priority 1984, dated 1987).
Bridge positions count the residues as written; N and C are the ends. Ends that are not written are not given here.

Experiments:
Male rats [1] = assay: Another test: relative amounts of urine, Na+, K+, Cl- for 30 minutes before and after administration (Table 3); format: in vivo, rat; conditions: Furosemide 0.3 μmol
Method: Male rats weighing 300 to 400 grams were anesthetized by intraperitoneal administration of pentobarbital at a dosage of 60 mg/kg, and used for tests of the β-rANP according to the method described in Life Sciences, Vol. 28, pp 89-94.
To keep the respiratory tract open, a tracheal cannula (PE-240 Clay-Adams) was inserted into the trachea. An arterial cannula (PE-50) was inserted into a femoral artery for measurement of the blood pressure, and a venous cannula was inserted into a femoral vein for the administration of Ringer's solution. 1.2 ml of Ringer's solution was infused at a flow rate of 1.2 ml/hour.
A bladder cannula made of silastic tube with a inner diameter of 0.02 inches and an outer diameter of 0.037 inches was inserted into the bladder, and via the cannula, a urine sample was collected into a test tube. The collection of urine was carried out for 30 minutes before administration of the test compound, and every five minutes after the administration.
A predetermined amount of the test compound β-rANP was dissolved in 50 μl of sterilized physiological saline with 5 μg of bacitracin, and the solution was injected into the jugular vein.

Male rats [2] = assay: Diuretic and natriuretic test in anesthetized rats, urine collected before and 5 minutes after jugular vein injection (Table 2); format: in vivo, rat; conditions: furosemide 1.21 μmole (group IV)
Method: To keep the respiratory tract open, a tracheal cannula (PE-240 Clay-Adams) was inserted into the trachea. An arterial cannula (PE-50) was inserted into a femoral artery for measurement of the blood pressure, and a venous cannula was inserted into a femoral vein for the administration of Ringer's solution.
The collection of urine was carried out for 30 minutes before administration of the test compound, and every five minutes after the administration.
The control group (group I) was administered 50 μl of physiological saline containing only bacitracin.

Solubility in solvents = format: physicochemical
Excerpt: (6) Solubility in solvents: soluble in water, partially in methanol, and acetic acid; insoluble in ethyl acetate, butyl acetate, ethyl ether, hexane, petroleum ether, benzene, and chloroform.

[3] = Repeated administration: antibody production, anaphylaxis shock, toxicity; format: in vivo

## NS(=O)(=O)c1cc(C(=O)O)c(NCc2ccco2)cc1Cl [Furosemide, furosemide]
Male rats [1]
  Urine volume, percentage after relating to before: 497 ± 165%
Male rats [2]; A: sample collected 5 minutes after administration
  Urine volume A: 167 ± 28 µL/min
Male rats [2]; B: sample collected 30 minutes before administration
  Urine volume B: 8.6 ± 1.9 µL/min

## PSDRSALLKSKLRALLAGPRSLRRSSCFGGRIDRIGAQSGLGCNSFRY (disulfide 27-43) [β-rANP, β-rat atrial natriuretic polypeptide]
Solubility in solvents; ethyl acetate, butyl acetate, ethyl ether, hexane, petroleum ether, benzene, and chloroform
  Solubility in solvents: insoluble
Solubility in solvents; methanol, and acetic acid
  Solubility in solvents: partially
Solubility in solvents; water
  Solubility in solvents: soluble
[3]; in vivo
  toxicity: little toxicity
[3]; repeated administration
  anaphylaxis shock: does not cause
  production of antibodies: does not stimulate
